Measured values as given in patent publication US20250230193A1, “CYCLIC COMPOUND HAVING SELECTIVE KRAS INHIBITORY EFFECT ON HRAS AND NRAS” (CHUGAI SEIYAKU KABUSHIKI KAISHA, priority 2022, published 2025).

Columns and labels:
[1] = target: GDP-bound NRAS wild-type protein (Homo sapiens, UniProt P01111); test: Binding to NRAS by surface plasmon resonance (SPR), Single Cycle Kinetics; conditions: for NRAS/KRAS (ratio of KD value for NRAS to KD value for KRAS) / NRAS/KRAS (ratio of KD value with respect to NRAS to KD value with respect to KRAS): GDP-bound NRAS wild-type vs GDP-bound KRAS wild-type
[2] = target: GDP-bound HRAS wild-type protein (Homo sapiens, UniProt P01112); test: Binding to HRAS by surface plasmon resonance (SPR), Single Cycle Kinetics; conditions: for HRAS/KRAS (ratio of KD value for HRAS to KD value for KRAS) / HRAS/KRAS (ratio of KD value with respect to HRAS to KD value with respect to KRAS): GDP-bound HRAS wild-type vs GDP-bound KRAS wild-type
[3] = SPR, GDP-bound wild-type proteins

GDP-bound NRAS wild-type protein, sequence (P01111 whole entry): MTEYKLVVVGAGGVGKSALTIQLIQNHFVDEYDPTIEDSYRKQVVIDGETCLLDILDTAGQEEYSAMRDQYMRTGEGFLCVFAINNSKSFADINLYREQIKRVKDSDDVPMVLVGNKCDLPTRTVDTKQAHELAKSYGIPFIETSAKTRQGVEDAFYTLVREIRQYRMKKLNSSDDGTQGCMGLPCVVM
GDP-bound HRAS wild-type protein, sequence (P01112 whole entry): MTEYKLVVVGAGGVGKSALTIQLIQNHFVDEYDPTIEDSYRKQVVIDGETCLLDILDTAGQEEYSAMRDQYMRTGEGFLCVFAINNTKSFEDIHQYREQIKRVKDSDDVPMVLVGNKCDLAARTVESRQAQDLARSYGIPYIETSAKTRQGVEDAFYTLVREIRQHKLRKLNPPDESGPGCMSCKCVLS

## CCCOC[C@H]1C(=O)N[C@@H]([C@@H](C)CC)C(=O)N(C)CC(=O)N(C)[C@H]2C/C=C\CCN(C2=O)[C@@H](Cc2ccc(C(F)(F)F)cc2)C(=O)N(C)CC(=O)N[C@@H](CCc2ccc(Cl)c(Cl)c2)C(=O)N2C[C@H](OCC)C[C@H]2C(=O)NC2(CCC2)C(=O)N(C)[C@@H](C2CCCC2)C(=O)N(C)[C@H](C(=O)N(C)CCC)CC(=O)N1C [PP2830]
[1]; class symbols
  NRAS/KRAS (ratio of KD value with respect to GDP-bound NRAS wild-type protein to KD value with respect to KRAS): A (a compound having 10 or more and less than 20 is denoted as A)
[2]; class symbols
  HRAS/KRAS (ratio of KD value with respect to GDP-bound HRAS wild-type protein to KD value with respect to KRAS): A (a compound having 10 or more and less than 20 is denoted as A)

## CC[C@H](C)[C@@H]1NC(=O)[C@H](CC(C)C)N(C)C(=O)C[C@@H](C(=O)N(C)CC)N(C)C(=O)[C@H](C2CCCC2)N(C)C(=O)C2(CC(C)(C)C2)NC(=O)[C@@H]2C[C@H](C)CN2C(=O)[C@H](CCc2ccc(C(F)(F)F)c(OC)c2)NC(=O)CN(C)C(=O)[C@H](Cc2ccc(C)cc2)N2CC/C=C\C[C@@H](C2=O)N(C)C(=O)CN(C)C1=O [PP1906]
[1]; KD ratio, SPR
  NRAS/KRAS (ratio of KD value for NRAS to KD value for KRAS): A (a compound having 10 or more and less than 20 is denoted as A)
[2]; KD ratio, SPR
  HRAS/KRAS (ratio of KD value for HRAS to KD value for KRAS): A (a compound having 10 or more and less than 20 is denoted as A)

## CCO[C@@H]1C[C@H]2C(=O)NC3(CCC3)C(=O)N(C)[C@@H](C3CCCC3)C(=O)N(C)[C@H](C(=O)N3CCOCC3)CC(=O)N(C)[C@@H](Cc3cccc(Cl)c3)C(=O)N[C@@H]([C@@H](C)CC)C(=O)N(C)CC(=O)N(C)[C@H]3CCCCCN(C3=O)[C@@H](Cc3ccc(C(F)(F)F)cc3)C(=O)N(C)CC(=O)N[C@@H](CCc3cc(F)c(C(F)(F)F)c(F)c3)C(=O)N2C1 [PP0857]
[1]; KD ratio, SPR
  NRAS/KRAS (ratio of KD value with respect to NRAS to KD value with respect to KRAS): B (a compound having 3 or more and less than 10 is denoted as B)
[2]; KD ratio, SPR
  HRAS/KRAS (ratio of KD value with respect to HRAS to KD value with respect to KRAS): B (a compound having 3 or more and less than 10 is denoted as B)

## CCCN(C)C(=O)[C@@H]1CC(=O)N(C)[C@@H](COCC)C(=O)N[C@@H]([C@@H](C)CC)C(=O)N(C)CC(=O)N(C)[C@H]2C/C=C\CCN(C2=O)[C@@H](Cc2ccc(C(F)(F)F)cc2)C(=O)N(C)CC(=O)N[C@@H](CCc2ccc(C(F)(F)F)c(OC)c2)C(=O)N2C[C@@H](C)C[C@H]2C(=O)NC2(CC(C)(C)C2)C(=O)N(C)[C@@H](C2CCCC2)C(=O)N1C [PP1991]
[1]; KD ratio, SPR
  NRAS/KRAS (ratio of KD value for NRAS to KD value for KRAS): A (a compound having 10 or more and less than 20 is denoted as A)
[2]; KD ratio, SPR
  HRAS/KRAS (ratio of KD value for HRAS to KD value for KRAS): A (a compound having 10 or more and less than 20 is denoted as A)

## CCO[C@@H]1C[C@H]2C(=O)NC3(CCC3)C(=O)N(C)[C@@H](C3CCCC3)C(=O)N(C)[C@H](C(=O)N3CCOCC3)CC(=O)N(C)[C@@H](CC(C)C)C(=O)N[C@@H]([C@@H](C)CC)C(=O)N(C)CC(=O)N(C)[C@H]3C[C@H]4C[C@H]4CN(C3=O)[C@@H](Cc3ccc(C(F)(F)F)cc3)C(=O)N(C)CC(=O)N[C@@H](CCc3cc(F)c(C(F)(F)F)c(F)c3)C(=O)N2C1 [PP0829]
[1]; KD ratio, SPR
  NRAS/KRAS (ratio of KD value with respect to NRAS to KD value with respect to KRAS): B (a compound having 3 or more and less than 10 is denoted as B)
[2]; KD ratio, SPR
  HRAS/KRAS (ratio of KD value with respect to HRAS to KD value with respect to KRAS): C (A compound having a KD ratio of 0.1 or more and less than 3 is denoted as C)

## CC[C@H](C)[C@@H]1NC(=O)[C@H](CC(C)C)N(C)C(=O)C[C@@H](C(=O)N2CCOCC2)N(C)C(=O)[C@H](C2CCCC2)N(C)C(=O)C2(CCCC2)NC(=O)[C@@H]2CCCN2C(=O)[C@H](CCc2ccc(C(F)(F)F)c(Cl)c2)NC(=O)CN(C)C(=O)[C@H](Cc2ccc(OC)cc2)N2C/C=C\CC[C@@H](C2=O)N(C)C(=O)CN(C)C1=O [PP0609]
[1]; SPR
  NRAS/KRAS (ratio of KD value with respect to GDP-bound NRAS wild-type protein to KD value with respect to KRAS): B (a compound having 3 or more and less than 10 is denoted as B)
[2]; SPR
  HRAS/KRAS (ratio of KD value with respect to GDP-bound HRAS wild-type protein to KD value with respect to KRAS): B (a compound having 3 or more and less than 10 is denoted as B)

## CCC(CC)[C@H]1C(=O)N(C)[C@H](C(=O)N(C)C)CC(=O)N(C)[C@@H](COC)C(=O)N[C@@H]([C@@H](C)CC)C(=O)N(C)CC(=O)N(C)[C@H]2C/C=C\CCN(C2=O)[C@@H](Cc2ccc(C)cc2)C(=O)N(C)CC(=O)N[C@@H](CCc2ccc(Cl)c(Cl)c2)C(=O)N2C[C@H](OC3CCCC3)C[C@H]2C(=O)N(C)C2(CC(C)(C)C2)C(=O)N1C [PP2818]
[1]; class symbols
  NRAS/KRAS (ratio of KD value with respect to GDP-bound NRAS wild-type protein to KD value with respect to KRAS): A (a compound having 10 or more and less than 20 is denoted as A)
[2]; class symbols
  HRAS/KRAS (ratio of KD value with respect to GDP-bound HRAS wild-type protein to KD value with respect to KRAS): A (a compound having 10 or more and less than 20 is denoted as A)

## CCO[C@@H]1C[C@H]2C(=O)N(C)C3(CCC3)C(=O)N(C)[C@@H](C3CCCC3)C(=O)N(C)[C@H](C(=O)N(C)C)CC(=O)N(C)[C@@H](CC(C)C)C(=O)N[C@@H]([C@@H](C)CC)C(=O)N(C)CC(=O)N(C)[C@H]3C/C=C\CCN(C3=O)[C@@H](Cc3ccc(C)cc3)C(=O)N(C)CC(=O)N[C@@H](CCc3cc(F)c(C(F)(F)F)c(F)c3)C(=O)N2C1 [PP1790]
[1]; KD ratio, SPR
  NRAS/KRAS (ratio of KD value for NRAS to KD value for KRAS): A (a compound having 10 or more and less than 20 is denoted as A)
[2]; KD ratio, SPR
  HRAS/KRAS (ratio of KD value for HRAS to KD value for KRAS): B (a compound having 3 or more and less than 10 is denoted as B)

## CCO[C@@H]1C[C@H]2C(=O)NC3(CCC3)C(=O)N(C)[C@@H](C3CCCC3)C(=O)N(C)[C@H](C(=O)N3CCOCC3)CC(=O)N(C)[C@@H](CC3CCC3)C(=O)N[C@@H]([C@@H](C)CC)C(=O)N(C)CC(=O)N(C)[C@H]3CCCCCN(C3=O)[C@@H](Cc3ccc(C(F)(F)F)cc3)C(=O)N(C)CC(=O)N[C@@H](CCc3cc(F)c(C(F)(F)F)c(F)c3)C(=O)N2C1 [PP0683]
[1]; SPR
  NRAS/KRAS (ratio of KD value with respect to GDP-bound NRAS wild-type protein to KD value with respect to KRAS): B (a compound having 3 or more and less than 10 is denoted as B)
[2]; SPR
  HRAS/KRAS (ratio of KD value with respect to GDP-bound HRAS wild-type protein to KD value with respect to KRAS): B (a compound having 3 or more and less than 10 is denoted as B)

## CCO[C@@H]1C[C@H]2C(=O)NC3(CC(C)(C)C3)C(=O)N(C)[C@@H](C(CC)CC)C(=O)N(C)[C@H](C(=O)N3CCCC3)CC(=O)N(C)[C@@H](COC)C(=O)N[C@@H]([C@@H](C)CC)C(=O)N(C)CC(=O)N(C)[C@H]3C/C=C\CCN(C3=O)[C@@H](Cc3ccc(C(F)(F)F)cc3)C(=O)N(C)CC(=O)N[C@@H](CCc3ccc(C(F)(F)F)c(OC)c3)C(=O)N2C1 [PP2159]
[1]; SPR
  NRAS/KRAS (ratio of KD value with respect to NRAS to KD value with respect to KRAS): AA (a compound having 20 or more is denoted as AA)
[2]; SPR
  HRAS/KRAS (ratio of KD value with respect to HRAS to KD value with respect to KRAS): A (a compound having 10 or more and less than 20 is denoted as A)

## CCO[C@@H]1C[C@H]2C(=O)NC3(CCC3)C(=O)N(C)[C@@H](C3CCCC3)C(=O)N(C)[C@H](C(=O)N(C)CC)CC(=O)N(C)[C@H]3CCCC/C=C/c4ccc(cc4)C[C@@H](C(=O)N(C)CC(=O)N[C@@H](CCc4cc(F)c(C(F)(F)F)c(F)c4)C(=O)N2C1)N1CC/C=C\C[C@@H](C1=O)N(C)C(=O)CN(C)C(=O)[C@H]([C@@H](C)CC)NC3=O [PP1827, (1S,7S,11R,13S,19S,22S,26S,29S,35S,37Z,47E)-19-cyclopentyl-7-[2-[3,5-difluoro-4-(trifluoromethyl)phenyl]ethyl]-11-ethoxy-N-ethyl-N,3,18,21,25,31,34-heptamethyl-29-[(1S)-1-methylpropyl]-2,5,8,14,17,20,24,27,30,33,55-undecaoxo-spiro[3,6,9,15,18,21,25,28,31,34,41-undecazapentacyclo[24.15.11.2^43,46.1^35,41.0^9,13]pentapentaconta-37,43(54),44,46(53),47-pentaene-16,1′-cyclobutane]-22-carboxamide]
[1]; KD ratio, SPR
  NRAS/KRAS (ratio of KD value for NRAS to KD value for KRAS): A (a compound having 10 or more and less than 20 is denoted as A)
[2]; KD ratio, SPR
  HRAS/KRAS (ratio of KD value for HRAS to KD value for KRAS): A (a compound having 10 or more and less than 20 is denoted as A)

## CCC[C@H]1C(=O)N[C@@H]([C@@H](C)CC)C(=O)N(C)CC(=O)N(C)[C@H]2C/C=C\CCN(C2=O)[C@@H](Cc2ccc(C(F)(F)F)cc2)C(=O)N(C)CC(=O)N[C@@H](CCc2ccc(C(F)(F)F)c(Cl)c2)C(=O)N2CC3(CC3)C[C@H]2C(=O)NC2(CC(C)(C)C2)C(=O)N(C)[C@@H]([C@@H](C)CC)C(=O)N(C)[C@H](C(=O)N(C)C)CC(=O)N1C [PP2983]
[1]; [3]
  NRAS/KRAS (ratio of KD value with respect to GDP-bound NRAS wild-type protein to KD value with respect to KRAS): AA (a compound having 20 or more is denoted as AA)
[2]; [3]
  HRAS/KRAS (ratio of KD value with respect to GDP-bound HRAS wild-type protein to KD value with respect to KRAS): A (a compound having 10 or more and less than 20 is denoted as A)

## CCO[C@H](C)[C@@H]1NC(=O)[C@H](CC(C)C)N(C)C(=O)C[C@@H](C(=O)N(C)CC)N(C)C(=O)[C@H](C2CCCC2)N(C)C(=O)C2(CC(C)(C)C2)NC(=O)[C@@H]2C[C@H](C)CN2C(=O)[C@H](CCc2ccc(C(F)(F)F)c(OC)c2)NC(=O)CN(C)C(=O)[C@H](Cc2ccc(C)cc2)N2CC/C=C\C[C@@H](C2=O)N(C)C(=O)CN(C)C1=O [PP2413]
[1]; SPR
  NRAS/KRAS (ratio of KD value with respect to NRAS to KD value with respect to KRAS): A (a compound having 10 or more and less than 20 is denoted as A)
[2]; SPR
  HRAS/KRAS (ratio of KD value with respect to HRAS to KD value with respect to KRAS): A (a compound having 10 or more and less than 20 is denoted as A)

## CCO[C@@H]1C[C@H]2C(=O)NC3(CCC3)C(=O)N(C)[C@@H](C3CCCC3)C(=O)N(C)[C@H](C(=O)N3CCOCC3)CC(=O)N(C)[C@@H](CC(C)C)C(=O)N[C@@H]([C@@H](C)CC)C(=O)N(C)CC(=O)N(C)[C@H]3C[C@@H](C)CCN(C3=O)[C@@H](Cc3ccc(C(F)(F)F)cc3)C(=O)N(C)CC(=O)N[C@@H](CCc3cc(F)c(C(F)(F)F)c(F)c3)C(=O)N2C1 [PP1025]
[1]; KD ratio, SPR
  NRAS/KRAS (ratio of KD value with respect to NRAS to KD value with respect to KRAS): C (A compound having a KD ratio of 0.1 or more and less than 3 is denoted as C)
[2]; KD ratio, SPR
  HRAS/KRAS (ratio of KD value with respect to HRAS to KD value with respect to KRAS): B (a compound having 3 or more and less than 10 is denoted as B)
